ChEMBL document CHEMBL1138730, “The synthesis and evaluation of [2.2.1]-bicycloazahydantoins as androgen receptor antagonists” (Bioorg Med Chem Lett, 2004)

Key:
[1] = target: T1, Androgen receptor (Homo sapiens, UniProt P10275); assay: Displacement of [3H]DHT from androgen receptor of human MDA-453 cells
T1 sequence (P10275 whole entry): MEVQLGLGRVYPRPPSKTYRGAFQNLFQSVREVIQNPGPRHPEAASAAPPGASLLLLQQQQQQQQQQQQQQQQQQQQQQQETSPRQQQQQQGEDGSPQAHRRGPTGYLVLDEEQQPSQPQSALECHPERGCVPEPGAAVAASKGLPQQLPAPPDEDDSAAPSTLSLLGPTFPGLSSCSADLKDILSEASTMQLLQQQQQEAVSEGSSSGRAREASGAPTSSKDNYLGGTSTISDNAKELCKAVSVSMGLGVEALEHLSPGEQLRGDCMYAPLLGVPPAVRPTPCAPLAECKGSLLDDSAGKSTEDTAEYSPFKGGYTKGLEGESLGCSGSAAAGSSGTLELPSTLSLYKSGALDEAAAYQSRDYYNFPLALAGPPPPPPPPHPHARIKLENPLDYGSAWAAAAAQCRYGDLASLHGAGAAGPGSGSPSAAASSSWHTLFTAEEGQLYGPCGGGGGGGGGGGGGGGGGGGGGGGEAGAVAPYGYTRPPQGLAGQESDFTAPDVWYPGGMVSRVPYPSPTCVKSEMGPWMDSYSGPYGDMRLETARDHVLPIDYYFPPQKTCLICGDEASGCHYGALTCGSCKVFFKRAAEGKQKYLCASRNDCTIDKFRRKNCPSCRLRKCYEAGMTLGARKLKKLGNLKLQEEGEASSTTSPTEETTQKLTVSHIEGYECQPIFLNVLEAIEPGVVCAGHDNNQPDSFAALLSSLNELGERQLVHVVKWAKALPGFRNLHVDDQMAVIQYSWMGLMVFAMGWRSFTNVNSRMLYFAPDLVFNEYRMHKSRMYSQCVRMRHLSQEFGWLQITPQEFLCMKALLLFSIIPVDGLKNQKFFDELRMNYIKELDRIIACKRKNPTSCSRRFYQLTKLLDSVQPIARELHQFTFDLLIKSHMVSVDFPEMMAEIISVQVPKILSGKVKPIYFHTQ

[2] = target: T1, Androgen receptor
Description: In vitro antagonistic activity against androgen receptor of MDA-453 cells

[3] = target: Androgen receptor (Homo sapiens, UniProt P10275); conditions: lncap
Description: In vitro antagonistic activity against mutant androgen receptor of LNCap cells

O=C1[C@H]2[C@H]3CC[C@H](C3)N2C(=O)N1c1ccc([N+](=O)[O-])c2ccccc12
Ki [1]: 1 nM
IC50 [2]: 1300 nM
IC50 [3]: > 5000 nM

CC(C)(C)OC(=O)N1C[C@@H]2C[C@H]1[C@@H]1C(=O)N(c3ccc(C#N)c(C(F)(F)F)c3)C(=O)N21
Ki [1]: 40 nM
IC50 [2]: 770 nM
IC50 [3]: 4380 nM

CC(C)(C)OC(=O)N1C[C@@H]2C[C@H]1[C@@H]1C(=O)N(c3ccc([N+](=O)[O-])c4ccccc34)C(=O)N21
Ki [1]: 60 nM
IC50 [2]: 3320 nM
IC50 [3]: 4430 nM

CC(C)(C)OC(=O)N1C[C@@H]2C[C@H]1[C@]1(C)C(=O)N(c3ccc(C#N)c(C(F)(F)F)c3)C(=O)N21
IC50 [2]: 780 nM
IC50 [3]: 10400 nM

O=C1[C@@H]2[C@@H]3CC[C@@H](C3)[C@@H]2C(=O)N1c1ccc([N+](=O)[O-])c(C(F)(F)F)c1
Ki [1]: 5 nM
IC50 [2]: 10 nM
IC50 [3]: > 5000 nM

CC(C)(C)OC(=O)N1C[C@@H]2C[C@H]1[C@H]1C(=O)N(c3ccc([N+](=O)[O-])c4ccccc34)C(=O)N21
IC50 [2]: 1330 nM
IC50 [3]: 5860 nM

CC(C)(C)OC(=O)N1C[C@H]2C[C@@H]1[C@H]1C(=O)N(c3ccc(C#N)c(C(F)(F)F)c3)C(=O)N21
Ki [1]: > 5000 nM
IC50 [2]: > 5000 nM
IC50 [3]: > 5000 nM

CC(C)(C)OC(=O)N1C[C@@H]2C[C@H]1[C@@H]1C(=O)N(c3ccc(C#N)cc3)C(=O)N21
Ki [1]: 240 nM
IC50 [2]: 2540 nM
IC50 [3]: 4970 nM

CC(C)(C)OC(=O)N1C[C@@H]2C[C@H]1[C@H]1C(=O)N(c3ccc(C#N)cc3)C(=O)N21
Ki [1]: 190 nM
IC50 [2]: > 5000 nM
IC50 [3]: 3510 nM

N#Cc1ccc(N2C(=O)[C@H]3[C@@H]4C[C@@H](CN4C(=O)c4ccccc4)N3C2=O)cc1C(F)(F)F
Ki [1]: 120 nM
IC50 [2]: 300 nM
IC50 [3]: 2600 nM

N#Cc1ccc(N2C(=O)[C@H]3[C@@H]4C[C@@H](CN4C(=O)Oc4ccc(F)cc4)N3C2=O)cc1C(F)(F)F
Ki [1]: 10 nM
IC50 [2]: 200 nM
IC50 [3]: 3920 nM

CC(C)(C)OC(=O)N1C[C@H]2C[C@@H]1[C@H]1C(=O)N(c3ccc([N+](=O)[O-])cc3)C(=O)N21
Ki [1]: 230 nM
IC50 [2]: 250 nM
IC50 [3]: 2390 nM

CCCCc1ccc(C(=O)N2C[C@@H]3C[C@H]2[C@@H]2C(=O)N(c4ccc([N+](=O)[O-])cc4)C(=O)N32)cc1
Ki [1]: 70 nM
IC50 [2]: 60 nM
IC50 [3]: 4750 nM

O=C1[C@H]2[C@@H]3C[C@@H](CN3C(=O)c3ccccc3)N2C(=O)N1c1ccc([N+](=O)[O-])cc1
Ki [1]: 10 nM
IC50 [2]: > 5000 nM
IC50 [3]: 2540 nM

N#Cc1ccc(N2C(=O)[C@H]3[C@@H]4C[C@@H](CN4C(=O)Oc4ccc(F)cc4)N3C2=O)c2ccccc12
Ki [1]: 40 nM
IC50 [2]: 580 nM
IC50 [3]: 1870 nM

CCCCc1ccc(C(=O)N2C[C@@H]3C[C@H]2[C@@H]2C(=O)N(c4ccc(C#N)cc4)C(=O)N32)cc1
Ki [1]: 100 nM
IC50 [2]: 580 nM
IC50 [3]: 6800 nM

CC(C)(C)OC(=O)N1C[C@@H]2C[C@H]1[C@H]1C(=O)N(c3ccc(C#N)c(C(F)(F)F)c3)C(=O)N21
Ki [1]: 180 nM
IC50 [2]: 640 nM
IC50 [3]: > 5000 nM

O=C1[C@H]2[C@@H]3C[C@@H](CN3C(=O)Oc3ccc(F)cc3)N2C(=O)N1c1ccc([N+](=O)[O-])c2ccccc12
Ki [1]: 10 nM
IC50 [2]: 340 nM
IC50 [3]: 30000 nM
